Test results: US8546529B2, “Injectable bone regeneration gel containing bone formation enhancing peptide” (Nano Intelligent Biomedical Engineering Corporation Co., …, priority 2007, dated 2013)

Test system: Mesodermal stem cells C2C12
Test: Calcification of cells by bone regeneration materials (calcein fluorescence)
Assay type: cell-based
Conditions: C2C12 cultured for 14 days in medium for hard tissue formation containing calcein; compared with material containing no peptide
Experimental: Mesodermal stem cells C2C12 (America Type Culture Collection, CRL-1772) were cultured for 14 days, while adding the injectable bone regeneration materials prepared in Example 1 to a medium for hard tissue formation, containing calcein (fluorescent substance for calcium). The cultured osteoblasts were fixed with 2% glutaraldehyde solution. The fixed cells were treated with 1% triton X-100, and then nuclei were strained with DAPI (blue) and actins were stained with Rhodamine phalloidin (Molecular Probe, red), thus staning the cultured cells.

YGLRSKSKKFRRPDIQYPDAT (listed as Homo sapiens) [SEQ ID NO: 6]
calcification (calcium fluorescence deposited on extracellular matrixes): promotes calcification of cells
